Each structure is given as a SMILES string. Where two headings read alike, the source gives them in different places.

In experiment [1] the target is T1, human somatostatin receptor subtype 5 (Homo sapiens, UniProt P35346).
T1 construct: expressed in transfected cells
The experiment is described as follows: cAMP assay for SST5R (inhibition of cAMP in CHO-K1 cells). To be noted: for EC50: inhibition of cAMP via human SST5 receptor, read-out: SST5 potency; for Fold selectivity for SST5 vs SST2: class symbols, SST5 receptor over SST2 receptor. The experiment is classed as cell-based. An outline of the steps:
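CHO-K1 cells stably expressing human SSTR5 were treated 20 min at 37 °C with compounds plus 1.6 μM NKH477 in HBSS, 0.5 mM HEPES pH 7.4, 0.1% BSA, 0.2 mM IBMX. Lysate cAMP measured by HTRF against a standard curve; EC50 from cAMP-versus-concentration plots.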

Experiment [2] has as its target T2, human somatostatin receptor subtype 2 (Homo sapiens, UniProt P30874).
T2 construct: expressed in transfected cells
The experiment can be described thus: cAMP assay for SST2R (inhibition of cAMP in CHO-K1 cells). The format is cell-based. To be noted: Table B; inhibition of cAMP via human SST2 receptor; read-out: SST2 potency. An outline of the steps: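 Agonism read as decrease in NKH477 (1.6 μM)-stimulated cAMP: compounds applied 20 min, 37° C, with 0.2 mM IBMX, to CHO-K1 stably expressing human SSTR2. cAMP quantified in lysates by time-resolved fluorescence (HTRF kit, 1-24 h RT), standard-curve regression, then EC50.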

T2 sequence (P30874 whole entry): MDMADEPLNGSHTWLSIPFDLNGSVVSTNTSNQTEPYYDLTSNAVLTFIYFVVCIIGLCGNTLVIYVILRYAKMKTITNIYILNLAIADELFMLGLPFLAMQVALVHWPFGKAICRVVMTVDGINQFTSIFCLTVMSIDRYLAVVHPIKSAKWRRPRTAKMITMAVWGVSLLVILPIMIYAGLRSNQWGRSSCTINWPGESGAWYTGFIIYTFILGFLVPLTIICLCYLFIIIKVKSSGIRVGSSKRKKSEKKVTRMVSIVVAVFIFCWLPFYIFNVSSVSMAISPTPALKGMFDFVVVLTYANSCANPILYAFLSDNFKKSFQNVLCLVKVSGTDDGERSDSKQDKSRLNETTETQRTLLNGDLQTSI
T1 sequence (P35346 whole entry): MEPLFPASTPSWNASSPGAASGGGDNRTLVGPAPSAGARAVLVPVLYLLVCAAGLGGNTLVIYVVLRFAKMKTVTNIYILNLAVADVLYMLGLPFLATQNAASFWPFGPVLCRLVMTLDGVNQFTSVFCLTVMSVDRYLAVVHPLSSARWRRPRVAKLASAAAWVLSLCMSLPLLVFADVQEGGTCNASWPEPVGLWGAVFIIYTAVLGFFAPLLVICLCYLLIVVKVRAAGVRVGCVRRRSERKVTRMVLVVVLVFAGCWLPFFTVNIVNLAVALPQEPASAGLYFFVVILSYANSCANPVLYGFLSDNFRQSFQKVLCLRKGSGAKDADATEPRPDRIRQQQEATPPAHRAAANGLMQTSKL

On to `C[C@H](NC(=O)c1cnc(C#N)c(-c2cccc(OC(F)(F)F)c2)c1N1CC[C@](C)(N)C1)C1CC1` [1-127, 4-[(3S)-3-amino-3-methylpyrrolidin-1-yl]-6-cyano-N-[(1S)-1-cyclopropylethyl]-5-[3-(trifluoromethoxy)phenyl]pyridine-3-carboxamide], for which the values for the EC50 in experiment [1] (Table A), in experiment [1] (Table B) and in experiment [2] were less than 10 nM, less than 10 nM and 100 to 1000 nM, respectively. In experiment [1] (Table B), the “Fold selectivity for SST5 vs SST2” value was “+++ (+++=>500)”.
For `COc1ncc(C(=O)NC23CC(F)(C2)C3)c(N2CC[C@](C)(N)C2)c1-c1cc(F)cc(F)c1` [1-273, 4-[(3S)-3-amino-3-methylpyrrolidin-1-yl]-5-(3,5-difluorophenyl)-N-{3-fluorobicyclo[1.1.1]pentan-1-yl}-6-methoxypyridine-3-carboxamide], the EC50 in experiment [1] (Table A) is less than 10 nM; in experiment [1] (Table B), less than 10 nM; in experiment [2], 100 to 1000 nM. Besides, the “Fold selectivity for SST5 vs SST2” value in experiment [1] (Table B) is listed as “+++ (+++=>500)”.
On to `C[C@H](NC(=O)c1cncc(-c2cc(F)cc(F)c2)c1N1CC[C@](C)(N)C1)C1CC1` [1-41, 4-[(3S)-3-amino-3-methylpyrrolidin-1-yl]-N-[(1S)-1-cyclopropylethyl]-5-(3,5-difluorophenyl)pyridine-3-carboxamide], for which the EC50 in experiment [1] (Table A) was less than 10 nM; in experiment [1] (Table B), less than 10 nM; in experiment [2] it was 10 to 100 nM. Moreover, the “Fold selectivity for SST5 vs SST2” value in experiment [1] (Table B) is on record as “++ (++=100 to 499)”.
On to `CCOC(=O)COc1ncc(C(=O)NC2CCC(F)(F)CC2)c(N2CC[C@H](N)C2)c1-c1cc(F)cc(F)c1` [1-200, ethyl 2-({4-[(3S)-3-aminopyrrolidin-1-yl]-5-[(4,4-difluorocyclohexyl)carbamoyl]-3-(3,5-difluorophenyl)pyridin-2-yl}oxy)acetate], for which the results for the EC50 in experiment [1] (Table A), in experiment [1] (Table B) and in experiment [2] were less than 10 nM, less than 10 nM and 100 to 1000 nM, respectively. For the same compound, the “Fold selectivity for SST5 vs SST2” value in experiment [1] (Table B) is reported as “+++ (+++=>500)”.
`C[C@]1(N)CCN(c2c(C(=O)NC34CC(F)(C3)C4)cnc(C#N)c2-c2cc(F)cc(F)c2)C1` [1-234, 4-[(3S)-3-amino-3-methylpyrrolidin-1-yl]-6-cyano-5-(3,5-difluorophenyl)-N-{3-fluorobicyclo[1.1.1]pentan-1-yl}pyridine-3-carboxamide]: the EC50 in experiment [1] (Table A) is less than 10 nM; in experiment [1] (Table B), less than 10 nM; in experiment [2] it was 100 to 1000 nM. Moreover, the “Fold selectivity for SST5 vs SST2” value in experiment [1] (Table B) is “+++ (+++=>500)”.
As for `C[C@]1(N)CCN(c2c(C(=O)NCc3ccon3)cnc(C#N)c2-c2cc(F)cc(F)c2)C1` [1-114, 4-[(3S)-3-amino-3-methylpyrrolidin-1-yl]-6-cyano-5-(3,5-difluorophenyl)-N-[(1,2-oxazol-3-yl)methyl]pyridine-3-carboxamide], the figures for the EC50 in experiment [1] (Table A), in experiment [1] (Table B) and in experiment [2] were less than 10 nM, less than 10 nM and greater than 1000 nM, respectively. In addition, the “Fold selectivity for SST5 vs SST2” value in experiment [1] (Table B) is “+++ (+++=>500)”.
For `COc1ncc(C(=O)N[C@@H](C)C2CC2)c(N2CC[C@](C)(N)C2)c1-c1cc(F)cc(C(F)(F)F)c1` [1-164, 4-[(3S)-3-amino-3-methylpyrrolidin-1-yl]-N-[(1S)-1-cyclopropylethyl]-5-[3-fluoro-5-(trifluoromethyl)phenyl]-6-methoxypyridine-3-carboxamide], the EC50 in experiment [1] (Table A) was less than 10 nM; in experiment [1] (Table B) it was less than 10 nM; in experiment [2], 100 to 1000 nM. For the same compound, the “Fold selectivity for SST5 vs SST2” value in experiment [1] (Table B) is recorded as “+++ (+++=>500)”.
For `CC1(C)CC(NC(=O)c2cncc(-c3cc(F)cc(F)c3)c2N2CC[C@](C)(N)C2)C1` [1-22, 4-[(3S)-3-amino-3-methylpyrrolidin-1-yl]-5-(3,5-difluorophenyl)-N-(3,3-dimethylcyclobutyl)pyridine-3-carboxamide], the results for the EC50 in experiment [1] (Table A), in experiment [1] (Table B) and in experiment [2] were less than 10 nM, less than 10 nM and 100 to 1000 nM, respectively. Also, the “Fold selectivity for SST5 vs SST2” value in experiment [1] (Table B) was “++ (++=100 to 499)”.

The values are drawn from US12600709B2, “Nonpeptide somatostatin type 5 receptor agonists and uses thereof” (Crinetics Pharmaceuticals, Inc., priority 2019, dated 2026).
